This is an account of results in ChEMBL document CHEMBL5579840, “Optimization of diastereomeric dihydropyridines as antimalarials” (Eur J Med Chem, 2024).

Calls of active or inactive are those of the source. The calls are words filed in the database; no cut-off is given here.

Test [1] has as its system Plasmodium falciparum. As to the kind of experiment: Antimalarial activity against chloroquine-resistant Plasmodium falciparum K1 infected in erythroctes incubated for 72 hrs by SYBR green 1 based spectrofluorometer. The format is functional, organism-based, Erythrocyte. Conditions: erythrocyte.
In test [2] the test system is Plasmodium berghei. Description: Antiplasmodial activity against Plasmodium berghei KBG-173 infected in male mouse assessed as inhibition of parasitemia at 50 mg/kg, po administered as single dose on day 1 post exposure and measured on day 6 post exposure relative to control. Type of test: functional. The following applies: KBG-173, 72 h, time 3 day.
For test [3], the system named is Plasmodium falciparum. As to the kind of experiment: Antimalarial activity against chloroquine-sensitive Plasmodium falciparum 3D7 infected in erythroctes incubated for 72 hrs by SYBR green 1 based spectrofluorometer. The format is functional, organism-based, Erythrocyte. The following applies: erythrocyte.
Test [4] has as its system Plasmodium berghei. Description: Antiplasmodial activity against Plasmodium berghei KBG-173 infected in male mouse assessed as inhibition of parasitemia at 50 mg/kg, po administered as single dose on day 1 post exposure and measured on day 3 post exposure relative to control. Type of test: functional. The following applies: KBG-173, 72 h, time 3 day.
Test [5] has as its system Plasmodium falciparum. Description: Fold resistance, ratio of EC50 for antiplasmodial activity against Plasmodium falciparum W2 infected in RBC assessed as inhibition of parasite growth incubated for 22 days to EC50 for antiplasmodial activity against Plasmodium falciparum W2 infected in RBC assessed as inhibition of parasite growth incubated for 72 hrs. The format is functional.

For test [6], the system named is Plasmodium falciparum. Description: Antimalarial activity against Plasmodium falciparum W2 infected in RBC assessed as parasitemia at 700 nM measured on day 4 by microscopic analysis relative to control. Type of test: functional. Conditions: time 4 day.
For test [7], the system named is Plasmodium falciparum. Description: Antimalarial activity against Plasmodium falciparum W2 infected in RBC assessed as reduction in parasitemia at 700 nM measured immediately by YOYO1 staining based LSR II flow cytometer. The format is functional, organism-based. In general terms: A flow cytometer gives signals particle by particle.
Test [8] relates to Plasmodium falciparum. As to the kind of experiment: Antimalarial activity against Plasmodium falciparum W2 infected in RBC assessed as inhibition of parasite growth incubated for 72 hrs by YOYO1 staining based LSR II flow cytometer. The format is functional, organism-based. The following applies: W2, Erythrocyte.
Test [9] concerns Plasmodium falciparum. Description: Antiplasmodial activity against chloroquine-sensitive Plasmodium falciparum 3D7. Type of test: functional, organism-based.
Test [10] has as its system Plasmodium falciparum. Description: Antimalarial activity against Plasmodium falciparum W2 infected in RBC assessed as inhibition of growth incubated for 22 days by YOYO1 staining based LSR II flow cytometer. Conditions: W2, Erythrocyte, 528 h. Type of test: functional, organism-based.
The test system of test [11] is Plasmodium berghei. Description: Antimalarial activity against liver stage Plasmodium berghei sporozoites expressing luciferase infected in human HepG2 cells. The format is functional, organism-based.
The subject of test [12] is Plasmodium falciparum. As to the kind of experiment: Antimalarial activity against chloroquine,pyrimethamine,mefloquine and atovaquine-resistant Plasmodium falciparum TM90-C2B infected in erythroctes incubated for 72 hrs by SYBR green 1 based spectrofluorometer. The format is functional, organism-based.
In test [13] the test system is Plasmodium falciparum. Description: Antimalarial activity against chloroquine and pyrimethamine-resistant Plasmodium falciparum W2 infected in erythroctes incubated for 72 hrs by SYBR green 1 based spectrofluorometer. The format is functional, organism-based. The following applies: for EC50: W2, 72 h.

With `CCCC1=C(C(=O)OCC)C(c2ccc(Cl)cc2C)C2=C(CC(c3ccc(OC)c(OC)c3)CC2=O)N1` (stereo in doubt; 44B), the EC50 in [1] came out at 11.1 nM; in test [3], 3.4 nM. Moreover, the inhibition in vivo at 50 mg/kg turned out to be 6.76% in test [2] and 34% in test [4].

For `CCCC1=C(C(=O)OCC)C(c2ccc(Cl)cc2C)C2=C(CC(c3ccc(Cl)c(OC)c3)OC2=O)N1` (stereo in doubt; 47B), the concentration giving a half-maximal response (EC50) in test [1] turned out to be 21.5 nM; in test [3], 22.7 nM. The inhibition in vivo at 50 mg/kg in [2] and in test [4] was under 10% throughout.

Take `CCOC(=O)C1=C(C)NC2=C(C(=O)OC(c3ccc(Cl)c(OC)c3)C2)C1c1ccc(Cl)cc1C` (stereo in doubt; 42B): the results for the EC50 in test [1] and in test [3] were 38.4 nM and 58 nM, respectively. Moreover, the inhibition in vivo at 50 mg/kg in test [2] is 5.83%; in test [4], 34%.

In the case of `CCCOC(=O)C1=C(C)NC2=C(C(=O)CC(c3ccc(OC)c(OC)c3)C2)C1c1ccccc1F` (centres undefined), in test [5], the “Ratio EC50” value is given as 311. For the same compound, the Activity in test [6] turned out to be 0%. In addition, the outcome in test [7] was Active. The values for the EC50 in test [8], in test [9] and in test [10] were 8.4 nM, under 50 nM and 2610 nM, respectively.

With `CCOC(=O)C1=C(C)NC2=C(C(=O)CC(c3ccc(Cl)c(OC)c3)C2)C1c1ccccc1Cl` (stereo in doubt; 39B) [listing 1 of 2 here], the result in [11] was inactive.

For the compound `CCOC(=O)C1=C(C)NC2=C(C(=O)OC(c3ccc(OC)c(OC)c3)C2)C1c1ccc(Cl)cc1C` (stereo in doubt; 38B), the 50% effective concentration (EC50) came out at 29.1 nM in test [1] and 10.6 nM in test [3]. Also, the inhibition in vivo at 50 mg/kg in test [2] and in test [4] was under 10% throughout.

Regarding `CCOC(=O)C1=C(C)NC2=C(C(=O)OC(c3ccc(Cl)c(OC)c3)C2)C1c1ccccc1Cl` (stereo in doubt; 40B), the values for the EC50 in test [1] and in [3] were 217 nM and 135 nM, respectively. For the same compound, the inhibition in vivo at 50 mg/kg in test [2] is under 10%; in test [4] it was 66%.

For the compound `CCOC(=O)C1=C(C)NC2=C(C(=O)OC(c3ccc(OC)c(OC)c3)C2)C1c1ccccc1C` (stereo in doubt; 6B), the outcome in test [12] and in [13] was Active.

On to `COCC1=C(C(=O)OC)C(c2ccc(Cl)cc2C)C2=C(CC(c3ccc(OC)c(OC)c3)CC2=O)N1` (stereo in doubt; 51B) [listing 1 of 2 here], for which the outcome in [11] was inactive.

For the compound `COCC1=C(C(=O)OC)C(c2ccc(Cl)cc2C)C2=C(CC(c3ccc(OC)c(OC)c3)CC2=O)N1` (stereo in doubt; 51B) [listing 2 of 2 here], the EC50 in [1] worked out at 6.2 nM; in test [3], 2.5 nM. The figures for the inhibition in vivo at 50 mg/kg in test [2] and in test [4] were under 10% and 100%, respectively.

For the compound `CCOC(=O)C1=C(C)NC2=C(C(=O)CC(c3ccc(Cl)c(OC)c3)C2)C1c1ccc(Cl)cc1C` (stereo in doubt; 41B), the values for the concentration giving a half-maximal response (EC50) in test [1] and in test [3] were 9.7 nM and 9.4 nM, respectively. Moreover, the inhibition in vivo at 50 mg/kg in test [2] and in [4] was under 10% throughout.

For `CCN(CC)Cc1cc(Nc2ccnc3cc(Cl)ccc23)ccc1O` [AMODIAQUINE], the inhibition in vivo at 50 mg/kg in test [2] and in [4] was 100% each time.

In the case of `CCCC1=C(C(=O)OCC)C(c2ccc(Cl)cc2C)C2=C(CC(c3ccc(OC)c(OC)c3)OC2=O)N1` (stereo in doubt; 45B), the values for the EC50 in test [1] and in test [3] were 3.9 nM and 5.1 nM, respectively. Further, the inhibition in vivo at 50 mg/kg in test [2] and in [4] was under 10% in each case.

Regarding `CCOC(=O)C1=C(C)NC2=C(C(=O)CC(c3ccc(OC)c(OC)c3)C2)C1c1ccc(Cl)cc1C` (stereo in doubt; 37B), the EC50 in test [1] was determined as 15.9 nM; in [3], 14.5 nM. Also, the inhibition in vivo at 50 mg/kg in test [2] and in [4] was under 10% each time.

Consider `CCCC1=C(C(=O)OCC)C(c2ccc(Cl)cc2C)C2=C(CC(c3ccc(Cl)c(OC)c3)CC2=O)N1` (stereo in doubt; 46B), for which the figures for the EC50 in [1] and in test [3] were 19.8 nM and 10.4 nM, respectively. The inhibition in vivo at 50 mg/kg in [2] and in [4] was under 10% in each case.

On to `CCOC(=O)C1=C(C)NC2=C(C(=O)CC(c3ccc(Cl)c(OC)c3)C2)C1c1ccccc1Cl` (stereo in doubt; 39B) [listing 2 of 2 here], for which the EC50 in test [1] is 22.3 nM; in [3], 18.5 nM. Besides, the inhibition in vivo at 50 mg/kg in [2] and in [4] was under 10% in each case.

Regarding `CCCC1=C(C(=O)OCC)C(c2ccccc2Cl)C2=C(CC(c3ccc(OC)c(OC)c3)CC2=O)N1` (stereo in doubt; 43B), the 50% effective concentration (EC50) in test [12] was 4.4 nM; in test [1], 1.3 nM; in test [13] it was 3 nM; in test [3], 0.8 nM. Moreover, the inhibition in vivo at 50 mg/kg in [2] and in test [4] was under 10% throughout.

With `CCCC1=C(C(=O)OCC)C(c2ccccc2Cl)C2=C(CC(c3ccc(OC)c(OC)c3)OC2=O)N1` (stereo in doubt; 32B), the half-maximal effective concentration (EC50) in [12] is under 100 nM; in [1] it was 9.2 nM; in test [13] it was under 100 nM; in test [3], 16.1 nM. Moreover, the inhibition in vivo at 50 mg/kg in [2] and in test [4] was under 10% in each case.

Consider `COc1cc(OC)c(NC(=O)[C@H]2c3ccccc3C(=O)N(CC(C)C)[C@@H]2c2cccs2)cc1Cl`, for which the half-maximal effective concentration (EC50) in [9] was under 50 nM.

Turning to `CCOC(=O)C1=C(C)NC2=C(C(=O)OC(c3ccc(OC)c(OC)c3)C2)C1c1ccccc1Cl` (stereo in doubt; 3B) [listing 1 of 2 here], the outcome in [12] and in test [13] was Active. Besides, in test [11], the result was inactive.

`CCOc1ccc(N(C(C)=O)C2=C(N(C)C)C(=O)c3ccccc3C2=O)cc1` came in with an EC50 in [9] of under 50 nM.

Regarding `CCOC(=O)C1=C(C)NC2=C(C(=O)OC(c3ccc(OC)c(OC)c3)C2)C1c1ccccc1Cl` (stereo in doubt; 3B) [listing 2 of 2 here], the EC50 stood at 53.9 nM in test [1] and 260 nM in test [3]. In addition, the inhibition in vivo at 50 mg/kg stood at 77.6% in test [2] and 100% in [4].

Take `CCOC(=O)C1=C(C)NC2=C(C(=O)OC(c3ccc(OC)c(OC)c3)C2)C1c1ccc(Cl)cc1` (stereo in doubt; 5B): the outcome in test [12] and in [13] was Active.

One may read the EC50 as the midpoint of the concentration-response curve. Usually inhibition in vivo stands for how much of the control response was suppressed.
